Reference: US12275731B2, “Azaindole inhibitors of wild-type and mutant forms of LRRK2” (DANA-FARBER CANCER INSTITUTE, INC., priority 2018, dated 2025)

What was measured:
Test in all cases: KinomeScan profiling
Format in all cases: binding
[1] = molecular target: T1, ABL1(T315I)-nonphosphorylated (Homo sapiens, UniProt P00519, T315I); settings: read-out: % control
T1 construct: purchased KinomeScan®
How it was run: (§1)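 Percent-of-control values derive from RLU, calculated as (test − positive)/(negative − positive) × 100, where DMSO defines 100% and a positive control compound defines 0%. Each compound was tested at 1 μM in the 468-kinase panel; sub-35% readings indicate activity.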

IKK-alpha = molecular target: T2, IKK-alpha (Homo sapiens, UniProt O15111); settings: read-out: % control
T2 sequence (O15111 1-745): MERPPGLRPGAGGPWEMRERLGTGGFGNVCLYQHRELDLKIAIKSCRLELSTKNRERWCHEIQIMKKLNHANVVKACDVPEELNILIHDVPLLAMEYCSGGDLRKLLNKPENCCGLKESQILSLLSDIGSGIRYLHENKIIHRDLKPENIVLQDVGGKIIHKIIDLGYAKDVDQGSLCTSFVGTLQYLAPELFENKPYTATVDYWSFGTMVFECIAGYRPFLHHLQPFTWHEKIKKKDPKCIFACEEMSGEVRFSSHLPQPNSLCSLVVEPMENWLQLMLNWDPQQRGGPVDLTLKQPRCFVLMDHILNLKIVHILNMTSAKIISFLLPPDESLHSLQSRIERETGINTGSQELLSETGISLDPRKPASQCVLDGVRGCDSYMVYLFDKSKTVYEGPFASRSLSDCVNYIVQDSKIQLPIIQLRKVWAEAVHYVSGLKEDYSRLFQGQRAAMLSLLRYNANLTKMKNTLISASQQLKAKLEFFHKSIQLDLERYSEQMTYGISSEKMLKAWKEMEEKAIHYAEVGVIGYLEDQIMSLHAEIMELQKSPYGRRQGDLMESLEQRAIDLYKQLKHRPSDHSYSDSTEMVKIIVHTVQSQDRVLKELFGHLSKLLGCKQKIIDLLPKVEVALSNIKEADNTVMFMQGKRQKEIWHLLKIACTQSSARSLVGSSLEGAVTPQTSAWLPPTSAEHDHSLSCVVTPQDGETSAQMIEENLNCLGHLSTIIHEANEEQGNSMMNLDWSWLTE
How it was run: as §1

PLK4 = molecular target: T3, PLK4 (Homo sapiens, UniProt O00444); settings: PLK4, 1 μM; read-out: % control
T3 sequence (O00444 1-970): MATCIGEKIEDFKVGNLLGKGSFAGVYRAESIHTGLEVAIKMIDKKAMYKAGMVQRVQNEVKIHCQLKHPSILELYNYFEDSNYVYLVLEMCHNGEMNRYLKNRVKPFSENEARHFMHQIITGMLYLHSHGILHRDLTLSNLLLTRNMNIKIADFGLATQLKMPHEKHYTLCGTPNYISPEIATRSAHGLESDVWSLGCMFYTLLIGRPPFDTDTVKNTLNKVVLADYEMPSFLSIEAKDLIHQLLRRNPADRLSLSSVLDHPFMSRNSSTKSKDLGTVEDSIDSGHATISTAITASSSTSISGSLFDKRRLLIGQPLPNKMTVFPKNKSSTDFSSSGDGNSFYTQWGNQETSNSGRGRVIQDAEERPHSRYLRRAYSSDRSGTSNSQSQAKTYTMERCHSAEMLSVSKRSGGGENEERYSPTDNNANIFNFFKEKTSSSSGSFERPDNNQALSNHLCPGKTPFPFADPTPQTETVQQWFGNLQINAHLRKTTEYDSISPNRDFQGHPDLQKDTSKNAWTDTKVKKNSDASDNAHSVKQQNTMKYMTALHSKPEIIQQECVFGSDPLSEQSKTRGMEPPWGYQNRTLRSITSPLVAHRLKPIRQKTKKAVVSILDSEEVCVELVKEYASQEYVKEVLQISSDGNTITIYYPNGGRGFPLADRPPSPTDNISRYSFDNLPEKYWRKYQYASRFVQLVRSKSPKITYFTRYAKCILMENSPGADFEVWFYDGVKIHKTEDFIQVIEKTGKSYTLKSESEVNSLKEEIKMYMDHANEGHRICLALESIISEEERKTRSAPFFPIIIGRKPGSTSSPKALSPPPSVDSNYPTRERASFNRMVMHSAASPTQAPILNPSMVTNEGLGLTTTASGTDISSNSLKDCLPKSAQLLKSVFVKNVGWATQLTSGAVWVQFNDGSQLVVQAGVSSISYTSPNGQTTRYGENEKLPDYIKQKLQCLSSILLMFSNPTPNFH
How it was run: as §1

TTK = molecular target: T4, TTK (Homo sapiens, UniProt P33981); settings: read-out: % control
T4 sequence (P33981 1-857): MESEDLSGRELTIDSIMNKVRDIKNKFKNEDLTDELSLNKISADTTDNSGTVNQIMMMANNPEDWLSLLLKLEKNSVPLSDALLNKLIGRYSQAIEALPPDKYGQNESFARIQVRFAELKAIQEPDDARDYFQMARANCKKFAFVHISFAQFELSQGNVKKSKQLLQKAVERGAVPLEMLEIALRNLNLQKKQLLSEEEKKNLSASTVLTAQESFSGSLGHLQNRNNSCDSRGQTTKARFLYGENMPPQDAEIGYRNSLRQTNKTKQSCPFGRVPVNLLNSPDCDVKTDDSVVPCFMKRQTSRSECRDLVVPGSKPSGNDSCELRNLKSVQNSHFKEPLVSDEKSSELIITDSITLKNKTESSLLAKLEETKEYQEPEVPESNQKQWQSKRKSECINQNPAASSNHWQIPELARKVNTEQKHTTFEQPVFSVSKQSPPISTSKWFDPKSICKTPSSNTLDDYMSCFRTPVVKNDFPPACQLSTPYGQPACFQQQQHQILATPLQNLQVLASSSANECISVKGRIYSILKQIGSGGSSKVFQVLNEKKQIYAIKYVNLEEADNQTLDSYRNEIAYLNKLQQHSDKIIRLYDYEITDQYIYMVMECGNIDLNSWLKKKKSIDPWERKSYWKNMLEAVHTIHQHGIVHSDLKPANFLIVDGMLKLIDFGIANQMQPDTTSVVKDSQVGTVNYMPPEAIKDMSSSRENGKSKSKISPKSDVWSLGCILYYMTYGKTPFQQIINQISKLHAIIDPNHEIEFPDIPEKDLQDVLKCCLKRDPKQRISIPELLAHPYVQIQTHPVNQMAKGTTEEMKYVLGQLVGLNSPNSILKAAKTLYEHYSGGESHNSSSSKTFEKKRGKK
How it was run: as §1

[2] = molecular target: T5, RPS6KA5(Kin.Dom.2-C-terminal) (Homo sapiens, UniProt O75582); settings: read-out: % control
T5 construct: RPS6KA5(Kin.Dom.2-C-terminal)
How it was run: as §1

T5 sequence (O75582 426-687 limits assumed): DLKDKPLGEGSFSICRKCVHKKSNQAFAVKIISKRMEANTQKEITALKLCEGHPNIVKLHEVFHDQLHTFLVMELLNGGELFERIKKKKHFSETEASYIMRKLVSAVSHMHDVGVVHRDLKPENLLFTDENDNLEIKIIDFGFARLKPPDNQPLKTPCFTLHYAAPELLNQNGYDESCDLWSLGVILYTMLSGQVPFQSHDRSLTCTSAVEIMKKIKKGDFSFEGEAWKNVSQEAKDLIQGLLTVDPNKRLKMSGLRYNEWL

SMILES	remaining binding at 1 µM [1] [%]	remaining binding at 1 µM (IKK-alpha) [%]	remaining binding at 1 µM (PLK4) [%]	remaining binding at 1 µM (TTK) [%]	remaining binding at 1 µM [2] [%]
CNc1c(-c2cnn([C@H]3CCN(C(C)=O)C[C@@H]3F)c2)cnc2[nH]cc(Cl)c12 [Compound 77, 1-((3S,4S)-4-(4-(3-chloro-4-(methylamino)-1H-pyrrolo[2,3-b]pyridin-5-yl)-1H-pyrazol-1-yl)-3-fluoropiperidin-1-yl)ethan-1-one]	100	17	27	34	100
O=C(c1ccc(-c2cnc3[nH]cc(Cl)c3c2NC2CCCC2)cc1)N1CCC(N2CCOCC2)CC1 [Compound 101, (4-(3-chloro-4-(cyclopentylamino)-1H-pyrrolo[2,3-b]pyridin-5-yl)phenyl)(4-morpholinopiperidin-1-yl)methanone]	85	49	78	54	96
CNc1c(-c2ccc(C(=O)N3CCC(N4CCOCC4)CC3)cc2)cnc2[nH]cc(Cl)c12 [Compound 96, (4-(3-chloro-4-(methylamino)-1H-pyrrolo[2,3-b]pyridin-5-yl)phenyl)(4-morpholinopiperidin-1-yl)methanone]	100	14	27	3.6	100
